One experiment concerns the target T1, IKKβ (Homo sapiens, UniProt O14920).
T1 sequence (O14920 1-756): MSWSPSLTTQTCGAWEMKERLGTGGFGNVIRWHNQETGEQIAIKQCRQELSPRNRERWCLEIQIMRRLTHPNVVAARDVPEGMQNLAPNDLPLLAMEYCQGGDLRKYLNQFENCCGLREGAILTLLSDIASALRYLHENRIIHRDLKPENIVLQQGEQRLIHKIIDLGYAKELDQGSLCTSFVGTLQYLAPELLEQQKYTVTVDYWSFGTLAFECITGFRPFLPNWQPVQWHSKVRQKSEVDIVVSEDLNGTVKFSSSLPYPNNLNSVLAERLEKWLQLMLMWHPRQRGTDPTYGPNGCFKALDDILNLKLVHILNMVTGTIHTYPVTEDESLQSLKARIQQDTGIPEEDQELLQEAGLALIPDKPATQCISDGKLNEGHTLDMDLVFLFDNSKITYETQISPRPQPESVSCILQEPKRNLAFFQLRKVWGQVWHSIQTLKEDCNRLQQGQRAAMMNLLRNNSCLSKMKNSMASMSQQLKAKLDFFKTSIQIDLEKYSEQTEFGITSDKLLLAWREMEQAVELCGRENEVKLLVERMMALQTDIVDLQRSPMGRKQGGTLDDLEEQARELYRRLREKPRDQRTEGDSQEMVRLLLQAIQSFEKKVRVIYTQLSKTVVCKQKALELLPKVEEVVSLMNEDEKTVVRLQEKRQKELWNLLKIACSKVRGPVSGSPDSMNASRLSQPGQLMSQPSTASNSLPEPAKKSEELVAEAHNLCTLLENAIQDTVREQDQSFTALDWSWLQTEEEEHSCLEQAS
The experiment is described as follows: IKKβ kinase assay (Z′-LYTE Assay Kit-Ser/Thr 5 Peptide). The class given is biochemical. As to the method:
Alternately, the IKKβ kinase assay is performed in vitro using a Z′-LYTE™ Assay Kit-Ser/Thr 5 Peptide (Invitrogen, Cat.No. PV3178). All reactions (20 μL) are started by adding 0.8 μL of the test compound in a DMSO solution, 10 μL of Kinase/Peptide Mixture or Phospho-Peptide solution (Invitrogen, Cat.No. PV3219, diluted with 1.33× Kinase Buffer), 5 μL of 1.33× Kinase Buffer (Invitrogen, Cat.No. PV3189, 5× diluted with distilled water) or ATP Solution (5 μM), and 4.2 μL of distilled water. The 384-well assay plate (Corning, Cat.No. 3575) is mixed and incubated at room temperature for 1 hour. 10 μL of the Development Solution [Development Reagent B (Invitrogen, Cat.No. PV3296)/Development Buffer (Invitrogen, Cat.No. PV3127)=1:128] is then added to each well, mixed and incubated at room temperature for another 1 h. The kinase reaction is then stopped by adding 10 μL of the Stop Reagent (Invitrogen, Cat.No. PV3094), and the plate is read with a Wallac 1420 VICTOR^3 Multilabel Counter (PERKIN ELMER™) at 445 nm and 520 nm fluorescence. The assay has an MSR of 2.14. The compound is initially tested at 8 concentrations (10 μM) to 0.003 μM) using a 1:3 serial dilution scheme.

Experiment [1] relates to LPS-induced plasma TNFα production. The experiment is described as follows: LPS-induced cytokine production in rat plasma. The class given is in vivo, Lewis rats. Particulars: oral 1 h before LPS 0.4 mg/kg i.p. As for the experimental part: Alternately, the compound is screened for its ability to inhibit the LPS-induced cytokine production in rat plasma according to the method reported in the literature (Ziegelbauer K, Gantner F, Lukacs N W, et al. Br J. Pharmacol. 2005,145(2):178-92). Briefly, Lewis rats (male, body weight 140 g-180 g) are used in the experiments. Animals (8/group) are given 1 to 100 mg/kg of the testing compound (suspension in 35% solutol & 60% PEG400 & 5% PG) or vehicle by oral gavage at 1 h prior to intraperitoneal administration of LPS 0.4 mg/kg. Ninety minutes after the intraperitoneal administration of LPS, blood is collected in heparin anticoagulated tubes to measure TNFα using R&D System ELISA Kit based on the general Kit protocols. The plasma sample is diluted 100 fold with the dilution buffer and 50 μL of diluted sample is used in each measurement. The plate is read on a SPECTRAMAX® M2e Plus Plate Reader and TNFα levels are analyzed based on the standard curve. The drug levels in plasma are measured with LC-MS-MS. […] Alternately, the compound is screened for its ability to inhibit the LPS-induced cytokine production in mouse plasma. Balb/c mice (female, body weight 18-20 g) are used in the experiments. […] The plate is read on a SPECTRMAX® M2e Plus Plate Reader and the data is analyzed using a standard curve.

Molecules are shown by their SMILES.

On to `Cl.O=C(NC1CC1)c1cccc2[nH]c(-c3nc(N[C@@H]4CCC[C@H]4O)ncc3Cl)cc12` [Example 2, 2-{5-Chloro-2-[(1R,2R)-2-hydroxycyclopentylamino]pyrimidin-4-yl}-N-cyclopropyl-1H-indole-4-carboxamide hydrochloride], for which the half-inhibitory concentration (IC50) (usually the concentration needed to halve the response being measured) against IKKβ is 58.1 nM. The 50% effective dose (ED50) – broadly, the midpoint of the dose-response relation – in experiment [1] was 19.8 ± 10.9 mg/kg. Besides, the half-maximal effective concentration (EC50) (usually the concentration that produces a half-maximal response) in experiment [1] (read-out: EC50, plasma TNFα production (drug level in plasma)) came to 4.04 ± 1.28 µg/mL.

The values above are taken from patent US8501166B2, “Pyrimidinyl indole compounds” (Hutchison Medipharma Limited, priority 2010, dated 2013).
